Reference: patent publication US20240116985A1, “STAPLED PEPTIDES AND METHODS THEREOF” (priority 2020, published 2024)

Legend:
[1] = molecular target: T1, full-length B-Catenin (Uniprot ID P35222) (Homo sapiens, UniProt P35222); experiment: Alphascreen binding assay (beta-catenin / biotin-TCF4 10-53)
T1 construct: 65 nM full-length B-Catenin (Uniprot ID P35222)
T1 sequence (P35222 1-781): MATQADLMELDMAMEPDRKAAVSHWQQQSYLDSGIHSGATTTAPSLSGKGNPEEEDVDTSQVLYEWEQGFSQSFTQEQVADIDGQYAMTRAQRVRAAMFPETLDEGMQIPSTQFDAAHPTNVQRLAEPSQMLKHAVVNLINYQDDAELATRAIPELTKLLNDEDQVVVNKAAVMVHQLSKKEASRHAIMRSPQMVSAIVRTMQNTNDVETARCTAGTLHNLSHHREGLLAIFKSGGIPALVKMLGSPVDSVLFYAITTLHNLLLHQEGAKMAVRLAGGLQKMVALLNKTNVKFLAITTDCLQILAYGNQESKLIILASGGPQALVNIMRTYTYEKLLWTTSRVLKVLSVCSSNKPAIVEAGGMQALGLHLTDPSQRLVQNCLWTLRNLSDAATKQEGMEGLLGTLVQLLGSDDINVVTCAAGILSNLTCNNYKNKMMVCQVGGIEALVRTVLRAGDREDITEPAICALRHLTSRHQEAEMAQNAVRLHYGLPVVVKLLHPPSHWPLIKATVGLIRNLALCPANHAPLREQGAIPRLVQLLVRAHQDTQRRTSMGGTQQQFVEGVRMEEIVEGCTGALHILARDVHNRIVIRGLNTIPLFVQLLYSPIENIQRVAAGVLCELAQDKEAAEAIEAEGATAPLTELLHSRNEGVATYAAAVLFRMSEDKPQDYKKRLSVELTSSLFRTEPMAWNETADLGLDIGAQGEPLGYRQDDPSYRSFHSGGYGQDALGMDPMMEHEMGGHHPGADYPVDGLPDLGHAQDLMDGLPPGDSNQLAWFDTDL
Summary of the method: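 Final concentrations: 65 nM full-length human β-catenin plus 10 nM biotin-TCF4(10-53) peptide, test peptide 3-fold from 10 uM to 5 nM, preincubated 15 min at 20 °C in Tris pH 8.0/250 mM NaCl buffer. Nickel-chelate AlphaScreen donor/acceptor beads then added for 60 min in the dark; duplicate reads fitted to 1:1 binding model with Hill slope.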

[2] = CHI Log D procedure; format: physicochemical; conditions: for chromatographic logD: pH 7.4, CHI Log D; for CHI Log D: pH 7.4

SMILES | EC50 [1] | chromatographic logD [2] | CHI Log D [2]
COc1ccc2[nH]cc(C[C@H](NC(=O)[C@H](Cc3ccccc3)NC(=O)[C@]3(C)CCCCCCC=CCCCC4(CCCC=CC[C@]5(CCCN5C(C)=O)C(=O)N[C@@H](CC(=O)O)C(=O)N[C@@H](C)C(=O)N4)C(=O)N[C@@H](CC(=O)O)C(=O)N[C@@H](CCC(=O)O)C(=O)N[C@@H](C)C(=O)N[C@@H](C)C(=O)N[C@@H](Cc4ccccc4)C(=O)N[C@@H](C(C)C)C(=O)N3)C(=O)N[C@@H](CCC(N)=O)C(N)=O)c2c1 (stereo partly drawn) [I-165, Ac-PL3-Asp-Ala-B5-Asp-Glu-Ala-Ala-Phe-Val-S8-Phe-5MeOW-Gln-NH2] | 1.23 µM | 2 | –
CC(=O)N1CCC[C@]12CC=CCCCC1(CCCC=CCCCCCC[C@@](C)(C(=O)N[C@@H](Cc3ccccc3)C(=O)N[C@@H](CC3CNc4ccccc43)C(=O)N[C@@H](CCC(N)=O)C(N)=O)NC(=O)[C@H](C(C)C)NC(=O)[C@H](Cc3ccccc3)NC(=O)[C@H](C)NC(=O)[C@H](C)NC(=O)[C@H](CCC(=O)O)NC(=O)[C@H](CC(=O)O)NC1=O)NC(=O)[C@H](C)NC(=O)[C@H](CC(=O)O)NC2=O (stereo partly drawn) [I-167, Ac-PL3-Asp-Ala-B5-Asp-Glu-Ala-Ala-Phe-Val-S8-Phe-H2Trp-Gln-NH2] | 6.2 µM | – | 1.927
CC(=O)N1CCC[C@]12CC=CCCCC1(CCCC=CCCCCCC[C@@](C)(C(=O)N[C@@H](Cc3ccccc3)C(=O)N[C@@H](CC3CNc4ccccc43)C(=O)N[C@@H](CCC(N)=O)C(N)=O)NC(=O)[C@H](C(C)C)NC(=O)[C@H](Cc3ccccc3)NC(=O)[C@H](C)NC(=O)[C@H](C)NC(=O)[C@H](CCC(=O)O)NC(=O)[C@H](CC(=O)O)NC1=O)NC(=O)[C@H](C)NC(=O)[C@H](CC(=O)O)NC2=O (stereo partly drawn) [I-168, Ac-PL3-Asp-Ala-B5-Asp-Glu-Ala-Ala-Phe-Val-S8-Phe-H2Trp-Gln-NH2] | 5.64 µM | – | 1.942
CC(=O)N1CCC[C@]12CC=CCCCC1(CCCC=CCCCCCC[C@@](C)(C(=O)N[C@@H](Cc3ccccc3)C(=O)N[C@@H](Cc3c[nH]c4ccc(C(F)(F)F)cc34)C(=O)N[C@@H](CCC(N)=O)C(N)=O)NC(=O)[C@H](C(C)C)NC(=O)[C@H](Cc3ccccc3)NC(=O)[C@H](C)NC(=O)[C@H](C)NC(=O)[C@H](CCC(=O)O)NC(=O)[C@H](CC(=O)O)NC1=O)NC(=O)[C@H](C)NC(=O)[C@H](CC(=O)O)NC2=O (stereo partly drawn) [I-169, Ac-PL3-Asp-Ala-B5-Asp-Glu-Ala-Ala-Phe-Val-S8-Phe-5CF3W-Gln-NH2] | 9.21 µM | 2.18 | –
CC(=O)N1CCC[C@]12CC=CCCCC1(CCCC=CCCCCCC[C@@](C)(C(=O)N[C@@H](Cc3ccccc3)C(=O)N[C@@H](Cc3c[nH]c4ccc(C5CC5)cc34)C(=O)N[C@@H](CCC(N)=O)C(N)=O)NC(=O)[C@H](C(C)C)NC(=O)[C@H](Cc3ccccc3)NC(=O)[C@H](C)NC(=O)[C@H](C)NC(=O)[C@H](CCC(=O)O)NC(=O)[C@H](CC(=O)O)NC1=O)NC(=O)[C@H](C)NC(=O)[C@H](CC(=O)O)NC2=O (stereo partly drawn) [I-171, Ac-PL3-Asp-Ala-B5-Asp-Glu-Ala-Ala-Phe-Val-S8-Phe-5CpW-Gln-NH2] | 2.07 µM | – | 2.204
CC(=O)N1CCC[C@]12CC=CCCCC1(CCCC=CCCCCCC[C@@](C)(C(=O)N[C@@H](Cc3ccccc3)C(=O)N[C@@H](Cc3ccc4ccccc4c3)C(=O)N[C@@H](C)C(N)=O)NC(=O)[C@H](C)NC(=O)[C@H](Cc3ccc(F)c(F)c3)NC(=O)[C@H](C)NC(=O)[C@H](C)NC(=O)[C@H](CCC(=O)O)NC(=O)[C@H](CC(=O)O)NC1=O)NC(=O)[C@H](C)NC(=O)[C@H](CC(=O)O)NC2=O (stereo partly drawn) [I-185, Ac-PL3-Asp-Ala-B5-Asp-Glu-Ala-Ala-34FF-Ala-S8-Phe-2NapA-Ala-NH2] | 2.66 µM | 2.3 | –
CC(=O)N1CCC[C@]12CC=CCCCC1(CCCC=CCCCCCC[C@@](C)(C(=O)N[C@@H](Cc3ccccc3)C(=O)N[C@@H](Cc3c[nH]c4ccccc34)C(=O)N[C@@H](C)C(N)=O)NC(=O)[C@H](C)NC(=O)[C@H](Cc3ccccc3)NC(=O)[C@H](C)NC(=O)[C@H](C)NC(=O)[C@H](CCC(=O)O)NC(=O)[C@H](CC(=O)O)NC1=O)NC(=O)[C@H](C)NC(=O)[C@H](CC(=O)O)NC2=O (stereo partly drawn) [I-186, Ac-PL3-Asp-Ala-B5-Asp-Glu-Ala-Ala-Phe-Ala-S8-Phe-Trp-Ala-NH2] | 0.518 µM | – | 2.041
CC(=O)N1CCC[C@]12CC=CCCCC1(CCCC=CCCCCCC[C@@](C)(C(=O)N[C@@H](Cc3ccccc3)C(=O)N[C@@H](Cc3c[nH]c4ccccc34)C(=O)N[C@@H](CCC(N)=O)C(N)=O)NC(=O)[C@H](C(C)C)NC(=O)[C@H](Cc3ccccc3)NC(=O)[C@H](C)NC(=O)[C@H](C)NC(=O)[C@H](CCC(=O)O)NC(=O)[C@H](CCc3ccccc3)NC1=O)NC(=O)[C@H](C)NC(=O)[C@H](CC(=O)O)NC2=O (stereo partly drawn) [I-197, Ac-PL3-Asp-Ala-B5-hPhe-Glu-Ala-Ala-Phe-Val-S8-Phe-Trp-Gln-NH2] | 6.15 µM | – | 3.809
CC(=O)N1CCC[C@]12CC=CCCCC1(CCCC=CCCCCCC[C@@](C)(C(=O)N[C@@H](Cc3ccccc3)C(=O)N[C@@H](Cc3c[nH]c4ccccc34)C(=O)N[C@@H](CCC(N)=O)C(N)=O)NC(=O)[C@H](C(C)C)NC(=O)[C@H](Cc3ccccc3)NC(=O)[C@H](C)NC(=O)[C@H](C)NC(=O)[C@H](CCC(=O)O)NC(=O)[C@H](CC(=O)O)NC1=O)NC(=O)[C@H](C)NC(=O)[C@H](CC(N)=O)NC2=O (stereo partly drawn) [I-199, Ac-PL3-Asn-Ala-B5-Asp-Glu-Ala-Ala-Phe-Val-S8-Phe-Trp-Gln-NH2] | 0.796 µM | – | 2.262
CC(=O)N1CCC[C@]12CC=CCCCC1(CCCC=CCCCCCC[C@@](C)(C(=O)N[C@@H](Cc3ccccc3)C(=O)N[C@@H](Cc3c[nH]c4ccccc34)C(=O)N[C@@H](CCC(N)=O)C(N)=O)NC(=O)[C@H](C(C)C)NC(=O)[C@H](Cc3ccccc3)NC(=O)[C@H](C)NC(=O)[C@H](C)NC(=O)[C@H](CCC(=O)O)NC(=O)[C@H](CC(=O)O)NC1=O)NC(=O)[C@H](C)NC(=O)[C@H](CC(N)=O)NC2=O (stereo partly drawn) [I-200, Ac-PL3-Asn-Ala-B5-Asp-Glu-Ala-Ala-Phe-Val-S8-Phe-Trp-Gln-NH2] | 0.173 µM | – | 2.278
CC(=O)N1CCC[C@]12CC=CCCCC1(CCCC=CCCCCCC[C@@](C)(C(=O)N[C@@H](Cc3ccccc3)C(=O)N[C@@H](Cc3c[nH]c4ccccc34)C(=O)N[C@@H](CCC(N)=O)C(N)=O)NC(=O)[C@H](C(C)C)NC(=O)[C@H](Cc3ccccc3)NC(=O)[C@H](C)NC(=O)[C@H](C)NC(=O)[C@H](CCC(=O)O)NC(=O)[C@H](CC(=O)O)NC1=O)NC(=O)[C@H](C)NC(=O)[C@H](Cc1ccccc1)NC2=O (stereo partly drawn) [I-201, Ac-PL3-Phe-Ala-B5-Asp-Glu-Ala-Ala-Phe-Val-S8-Phe-Trp-Gln-NH2] | 6.16 µM | 2.94 | –
CC(=O)N1CCC[C@]12CC=CCCCC1(CCCC=CCCCCCC[C@@](C)(C(=O)N[C@@H](Cc3ccccc3)C(=O)N[C@@H](Cc3c[nH]c4ccccc34)C(=O)N[C@@H](CCC(N)=O)C(N)=O)NC(=O)[C@H](C(C)C)NC(=O)[C@H](Cc3ccccc3)NC(=O)[C@H](C)NC(=O)[C@H](C)NC(=O)[C@H](CCC(=O)O)NC(=O)[C@H](Cc3c[nH]cn3)NC1=O)NC(=O)[C@H](C)NC(=O)[C@H](CC(=O)O)NC2=O (stereo partly drawn) [I-206, Ac-PL3-Asp-Ala-B5-His-Glu-Ala-Ala-Phe-Val-S8-Phe-Trp-Gln-NH2] | 2.14 µM | 2.41 | –
CC(=O)N1CCC[C@]12CC=CCCCC1(CCCC=CCCCCCC[C@@](C)(C(=O)N[C@@H](Cc3ccccc3)C(=O)N[C@@H](Cc3c[nH]c4ccccc34)C(=O)N[C@@H](CCC(N)=O)C(N)=O)NC(=O)[C@H](C(C)C)NC(=O)[C@H](Cc3cc(F)c(F)c(F)c3)NC(=O)[C@H](C)NC(=O)[C@H](C)NC(=O)[C@H](CCC(=O)O)NC(=O)[C@H](CC(=O)O)NC1=O)NC(=O)[C@H](C)NC(=O)[C@H](CC(=O)O)NC2=O (stereo partly drawn) [I-209, Ac-PL3-Asp-Ala-B5-Asp-Glu-Ala-Ala-345FF-Val-S8-Phe-Trp-Gln-NH2] | 1.4 µM | – | 2.088
CC(=O)N1CCC[C@]12CC=CCCCC1(CCCC=CCCCCCC[C@@](C)(C(=O)N[C@@H](Cc3ccccc3)C(=O)N[C@@H](Cc3c[nH]c4ccccc34)C(=O)N[C@@H](CCC(N)=O)C(N)=O)NC(=O)[C@H](C(C)C)NC(=O)[C@H](Cc3cc(F)c(F)c(F)c3)NC(=O)[C@H](C)NC(=O)[C@H](C)NC(=O)[C@H](CCC(=O)O)NC(=O)[C@H](CC(=O)O)NC1=O)NC(=O)[C@H](C)NC(=O)[C@H](CC(=O)O)NC2=O (stereo partly drawn) [I-210, Ac-PL3-Asp-Ala-B5-Asp-Glu-Ala-Ala-345FF-Val-S8-Phe-Trp-Gln-NH2] | 1.4 µM | – | 2.088
